In patent publication US12414961B2, “Substituted nucleosides and nucleotides for treating viral infections” (priority 2013, dated 2025) one finds CC50 and EC50 data, which are given here for 24 compounds.

The structures appear in SMILES notation.

Data set [1] relates to CEM. In words: Cytotoxicity (CC50) CEM. Conditions: read-out: Cytotoxicity (CC50 uM) CEM; CEM.
Data set [2] concerns Huh-7. In words: Cytotoxicity (CC50) Huh-7. Conditions: read-out: Cytotoxicity (CC50 uM) Huh-7; Huh-7.
Data set [3] relates to HepG2. Description: Cytotoxicity (CC50) HepG2. The note with it: read-out: Cytotoxicity (CC50 uM) HepG2; HepG2.
Data set [4] relates to Huh-7 cells. Description: Cytotoxicity in Huh-7 cells of the HCV replicon assay. Conditions: read-out: Huh-7 cells (CC50 uM).
A short description of data set [5]: Cytotoxicity (CC50) CEM. Conditions: human, CEM cells.
A short description of data set [6]: Cytotoxicity (CC50) Huh-7. The note with it: human, Huh-7 cells.
A short description of data set [7]: Cytotoxicity (CC50) HepG2. The note with it: human, HepG2 cells.
Data set [8] can be described thus: Cytotoxicity in Huh-7 cells (Dengue assay). Conditions: human, Huh-7 cells.
The subject of data set [9] is Dengue Type 2. In words: Anti-Dengue virus cytoprotection assay, Huh-7 cells. The note with it: Huh-7, read-out: Dengue Type 2 Huh-7 Cells (EC50 uM).
Data set [10] concerns Influenza A H1N1. Description: Influenza A H1N1 antiviral assay. Conditions: Influenza A virus, H1N1, read-out: Influenza A H1N1 EC50. The data set is classed as cell-based.
Data set [11] has as its system Influenza A H3N2. Description: Influenza A H3N2 antiviral assay. The class given is cell-based. Conditions: Influenza A virus, H3N2, read-out: Influenza A H3N2 EC50.
In data set [12] the test system is Influenza A H5N1 (low path). In words: microbe, parasite or virus in culture. The class given is cell-based. The note with it: H5N1, read-out: Influenza A H5N1 (low path) EC50.
Data set [13] has as its system Influenza B. Description: Influenza B antiviral assay. The class given is cell-based. Conditions: Influenza B virus.
Data set [14] relates to RSV. In words: RSV antiviral assay. The data set is classed as cell-based. Conditions: human respiratory syncytial virus.
The subject of data set [15] is SARS. Description: microbe, parasite or virus in culture. Conditions: Severe acute respiratory syndrome coronavirus, read-out: SARS EC50. The class given is cell-based.
In data set [16] the test system is Measles. Description: Measles antiviral assay. The class given is cell-based, Measles virus. The note with it: Measles morbillivirus.
The test system of data set [17] is CHIK Virus. Description: CHIK Virus screening assay. The note with it: Chikungunya virus, read-out: CHIK Virus EC50. The data set is classed as cell-based, CHIKV.
Data set [18] deals with Dengue Virus. Description: Dengue Virus screening assay. The class given is cell-based, DENV.
Data set [19] has as its system RVFV. Description: microbe, parasite or virus in culture. The data set is classed as cell-based. The note with it: Rift Valley fever virus, read-out: RVFV EC50.
In data set [20] the test system is Tacaribe Virus. In words: microbe, parasite or virus in culture. The data set is classed as cell-based, TCRV. Conditions: Mammarenavirus tacaribeense, read-out: Tacaribe Virus EC50.
Data set [21] deals with VEEV. Description: microbe, parasite or virus in culture. The class given is cell-based. Conditions: Venezuelan equine encephalitis virus, read-out: VEEV EC50.
Data set [22] has as its system West Nile Virus. Description: West Nile Virus screening assay. The data set is classed as cell-based, WNV. The note with it: read-out: West Nile Virus EC50.
Data set [23] has as its system GT1b replicon cells. Description: Cytotoxicity in GT1b replicon cells. The class given is cell-based.
Data set [24] can be described thus: Cytotoxicity in Vero cells (Dengue assay). Conditions: African green monkey.
Data set [25] deals with Dengue Type 2. Description: Anti-Dengue virus cytoprotection assay, Vero cells. The note with it: read-out: Dengue Type 2 Vero Cells (EC50 uM).
Data set [26] has as its system BxPC3. Description: Cytotoxicity (CC50) BxPC3. Conditions: read-out: Cytotoxicity (CC50 uM) BxPC3; BxPC3.
In data set [27] the test system is A204. In words: Cytotoxicity (CC50) A204. The class given is cell-based. The note with it: A204.

The term CC50 denotes the concentration that lowers cell viability or growth by half. As to `CC(C)OC(=O)[C@H](C)NP(=O)(OC[C@@]1(N=[N+]=[N-])O[C@@H](n2ccc(=S)[nH]c2=O)[C@@H](O)C1O)Oc1ccccc1` (stereo partly shown), the CC50 in data set [1] is 229 µM; in [2], more than 400 µM; in data set [3] it was more than 400 µM; in data set [4], more than 100 µM.

In general, EC50 refers to the concentration that produces a half-maximal response. For the compound `C#C[C@]1(COP(=O)(N[C@@H](C)C(=O)OC(C)C)Oc2ccccc2)O[C@@H](n2ccc(=O)[nH]c2=S)C(O)[C@H]1O` (stereo partly shown), the CC50 was more than 400 µM in data set [5], more than 400 µM in data set [6], more than 400 µM in data set [7] and more than 100 µM in data set [8]. The EC50 in [9] is more than 100 µM.

With `Cc1cn([C@@H]2O[C@H](CO)[C@H](O)C2F)c(=O)nc1N` (stereo partly shown) [EFVX-01855], the EC50 in [10], in [11], in data set [12], in [13], in data set [14] and in [15] was more than 100 µM each time. Besides, the EC50 in [16] is more than 100 µM; in data set [17] it was more than 100 µg/mL; in data set [18] it was more than 100 µg/mL; in data set [19], more than 100 µg/mL; in [20] it was more than 100 µg/mL; in data set [21], more than 100 µg/mL. Further, the half-maximal effective concentration (EC50) in [22] was more than 100 µg/mL.

`Nc1ccn([C@@H]2O[C@H](CO)[C@H](O)C2F)c(=S)n1` (stereo partly shown) [EFVX-01857]: the EC50 is more than 100 µM in data set [10]; more than 100 µM in [11]; more than 100 µM in data set [12]; more than 100 µM in [13]; more than 100 µM in data set [14]; more than 87 µM in data set [15]. Further, the EC50 in [16] is more than 100 µM; in data set [17], more than 100 µg/mL; in data set [18] it was more than 100 µg/mL; in data set [19] it was more than 100 µg/mL; in data set [20], more than 100 µg/mL; in [21] it was more than 100 µg/mL. Moreover, the EC50 in data set [22] was more than 100 µg/mL.

On to `CC(C)OC(=O)[C@H](C)N[P@](=O)(OC[C@H]1O[C@@H](n2ccc(=O)[nH]c2=S)[C@](C)(O)C1O)Oc1ccccc1` (stereo partly shown) [drawing 371], for which the results for the CC50 in [1], in data set [2] and in data set [3] were more than 400 µM, 252 µM and more than 400 µM, respectively.

As to `CC(C)OC(=O)[C@H](C)NP(=O)(OC[C@H]1O[C@@H](n2ccc(=O)[nH]c2=S)C(C)[C@H]1O)Oc1ccccc1` (stereo partly shown), the cytotoxic concentration (CC50) was 259 µM in [5], more than 400 µM in data set [6], more than 400 µM in data set [7] and more than 100 µM in data set [8]. The EC50 in data set [9] was determined as 6.07 µM.

For the compound `CC(C)OC(=O)[C@H](C)NP(=O)(OC[C@H]1O[C@@H](n2ccc(=S)[nH]c2=O)[C@@H](O)C1O)Oc1ccccc1` (stereo partly shown), in [3], the CC50 is more than 400 µM.

In data set [23], `CC(C)OC(=O)[C@H](C)NP(=O)(OC[C@H]1O[C@@H](n2ccc(=O)[nH]c2=S)[C@](C)(O)C1O)Oc1ccccc1` (stereo partly shown) [drawing 383] gave a CC50 of more than 10 µM.

As for `CC(C)OC(=O)[C@H](C)N[P@@](=O)(OC[C@H]1O[C@@H](n2ccc(=O)[nH]c2=O)[C@](C)(F)C1O)Oc1ccccc1` (stereo partly shown), the CC50 in data set [1], in data set [2] and in data set [3] was more than 400 µM in each case.

In the case of `CC(C)OC(=O)[C@H](C)N[P@@](=O)(OC[C@H]1O[C@@H](n2ccc(=O)[nH]c2=S)C(C)(O)[C@H]1O)Oc1ccccc1` (stereo partly shown), the CC50 was more than 400 µM in [5]; more than 400 µM in [6]; more than 400 µM in data set [7]; more than 100 µM in data set [24]; more than 100 µM in data set [8]. Also, the EC50 in data set [25] stood at 56.2 µM; in [9] it was 24.9 µM.

Consider `Nc1nc(=O)n([C@@H]2O[C@H](CO)[C@H](O)C2F)cc1CO` (stereo partly shown) [EFVX-01856], for which the concentration giving a half-maximal response (EC50) in data set [10], in data set [11], in data set [12], in [13], in data set [14] and in data set [15] was more than 100 µM throughout. Besides, the EC50 in data set [16] is more than 100 µM; in data set [17], more than 100 µg/mL; in data set [18], more than 100 µg/mL; in data set [19] it was more than 100 µg/mL; in data set [20], more than 100 µg/mL; in [21], more than 100 µg/mL. Moreover, the EC50 in [22] is more than 100 µg/mL.

The compound `CC(C)OC(=O)[C@H](C)N[P@](=O)(OC[C@H]1O[C@@H](n2ccc(=O)[nH]c2=O)[C@](C)(F)C1O)Oc1ccccc1` (stereo partly shown) [drawing 385] returned a CC50 in data set [23] of more than 2 µM.

As to `CC(C)OC(=O)[C@H](C)N[P@](=O)(OC[C@H]1O[C@@H](n2ccc(=O)[nH]c2=O)[C@](C)(F)C1O)Oc1ccccc1` (stereo partly shown) [drawing 373], the figures for the CC50 in data set [1], in [2] and in data set [3] were more than 400 µM, 279 µM and 365 µM, respectively.

Turning to `C[C@@]1(O)C(O)[C@@H](CO)O[C@H]1n1ccc(=O)[nH]c1=S` (stereo partly shown), the CC50 in data set [1] is more than 200 µM; in [2], more than 100 µM; in data set [3], more than 400 µM; in data set [26], more than 100 µM.

Consider `C[C@@]1(O)C(O)[C@@H](CO)O[C@H]1n1ccc(=S)[nH]c1=O` (stereo partly shown), for which the CC50 in data set [1] is more than 400 µM; in data set [2], more than 100 µM; in [3], more than 400 µM; in data set [26], more than 100 µM.

In the case of `CC(C)OC(=O)[C@H](C)N[P@](=O)(OC[C@H]1O[C@@H](n2ccc(=O)[nH]c2=S)[C@](C)(O)C1O)Oc1ccccc1` (stereo partly shown) [drawing 384], the CC50 in [23] is more than 10 µM.

Turning to `C[C@@]1(F)C(O)[C@@H](CO)O[C@H]1n1ccc(=S)[nH]c1=O` (stereo partly shown), the CC50 in [1], in [2] and in data set [3] was more than 400 µM in each case.

With `CNc1ccn([C@@H]2O[C@H](CO)[C@H](O)C2F)c(=O)n1` (stereo partly shown) [EFVX-01853], the EC50 in data set [10], in data set [11], in data set [12], in [13], in data set [14] and in data set [15] was more than 100 µM throughout. The EC50 is more than 100 µM in data set [16]; more than 100 µg/mL in data set [17]; more than 100 µg/mL in data set [18]; more than 100 µg/mL in data set [19]; more than 100 µg/mL in [20]; more than 100 µg/mL in data set [21]. For the same compound, the EC50 in data set [22] was more than 100 µg/mL.

As to `C[C@@]1(O)C(O)[C@@H](COP(=O)(O)O)O[C@H]1n1ccc(=O)[nH]c1=S` (stereo partly shown), the CC50 was more than 400 µM in data set [1], more than 400 µM in data set [2], more than 400 µM in [3] and more than 100 µM in data set [4].

For `CC(C)OC(=O)[C@H](C)NP(=O)(OC[C@@]1(N=[N+]=[N-])O[C@@H](n2ccc(=S)[nH]c2=O)C(O)[C@H]1O)Oc1ccccc1` (stereo partly shown), the CC50 in [5] is 229 µM; in [6], more than 400 µM; in data set [7], more than 400 µM; in [8], more than 100 µM. In addition, the EC50 in data set [9] is 4.82 µM.

Turning to `C[C@H](NP(=O)(O)OC[C@H]1O[C@@H](n2ccc(=O)[nH]c2=S)[C@](C)(O)C1O)C(=O)O` (stereo partly shown), the CC50 is more than 400 µM in data set [1], more than 400 µM in [2], more than 400 µM in data set [3] and more than 100 µM in data set [4].

As for `CC(C)OC(=O)[C@H](C)NP(=O)(OC[C@H]1O[C@@H](n2ccc(=O)[nH]c2=[Se])[C@](C)(O)C1O)Oc1ccccc1` (stereo partly shown), the CC50 in data set [27] is more than 400 µM; in data set [2], more than 100 µM; in data set [3], more than 400 µM; in [26], more than 400 µM.

`CC(C)OC(=O)[C@H](C)N[P@@](=O)(OC[C@H]1O[C@@H](n2ccc(=O)[nH]c2=S)[C@](C)(O)C1O)Oc1ccccc1` (stereo partly shown): the CC50 in data set [1], in [2] and in data set [3] was more than 400 µM throughout.

For the compound `CN(C)c1ccn([C@@H]2O[C@H](CO)[C@H](O)C2F)c(=O)n1` (stereo partly shown) [EFVX-01854], the EC50 in data set [10], in [11], in data set [12], in [13], in data set [14] and in [15] was more than 100 µM throughout. The EC50 was more than 100 µM in data set [16]; more than 100 µg/mL in [17]; more than 100 µg/mL in data set [18]; more than 100 µg/mL in data set [19]; more than 100 µg/mL in [20]; more than 100 µg/mL in data set [21]. Moreover, the EC50 in data set [22] was more than 100 µg/mL.
